Tests used:
[1] = tested on: rat small-intestinal brush border membrane vesicles; assay: Inhibitory effect on 33PO4 uptake into rat small-intestinal brush border membrane vesicles (rapid filtration method); format: biochemical; details: 33PO4 uptake into rat small-intestinal BBMVs; test compound 1 µM; reacted for 60 seconds
In short: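 Uptake of ^33PO4 was measured by rapid filtration and liquid scintillation counting of filter-retained vesicles, after quenching with ice-cold 110 mM NaCl/1 mM KH2PO4/10 mM HEPES pH 7.5. Vesicles were brush border membranes from the upper small intestine of female Wistar rats aged 4–5 weeks.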

[2] = tested on: chronic kidney disease model rat; assay: Suppressive effect on rise in serum creatinine concentration of chronic kidney disease model rat; format: in vivo; details: suppression of a rise in serum creatinine concentration, dosage 0.1% in feed for 14 weeks
Experimental: (§1) A group given feed non-supplemented with the test compound was used as a reference pathological group, and a group neither subjected to the kidney removal nor antibody administration and given feed non-supplemented with the test compound was used as a normal group. Fourteen weeks after the start of administration of the test compound, blood was collected from the abdominal aorta and serum was collected. As an indicator of renal damage, serum creatinine concentrations were measured by an enzyme assay (creatinase-sarcosine oxidase-POD method). The rate of suppression of a rise in serum creatinine concentration was determined according to the following expression: Rate (%) of suppression of a rise in serum creatinine concentration = (1−[(Serum creatinine concentration of the test compound−treated pathological group)−(Serum ceatinine concentration of the […])]/[(Serum creatinine concentration of the reference pathological group)−(Serum creatinine concentration of the normal group)]) × 100 [formula]
As a result, the test compound was confirmed to have a suppressive effect on a rise in serum creatinine concentration, namely, a suppressive effect on renal damage. […]

[3] = tested on: chronic kidney disease model rat; assay: Suppressive effect on rise in serum parathyroid hormone concentration of chronic kidney disease model rat; format: in vivo; details: suppression of a rise in serum parathyroid hormone concentration
Experimental: as §1
Using serum collected from the same animal as that in test example 7 after 14 weeks from the start of administration of the test compound, concentrations of serum parathyroid hormone were measured by the ELISA method. […]

[4] = tested on: chronic kidney disease model rat; assay: Suppressive effect on calcium deposition in blood vessel of chronic kidney disease model rat; format: in vivo; details: suppression of calcium deposition in blood vessel (thoracic aorta)
Experimental: as §1
From the same animal as that in Test Example 7, the thoracic aorta was collected 14 weeks after the start of administration of the test compound, and the dry weight was measured. […]

[5] = tested on: Adenine-induced renal failure rats; assay: Suppressive effect on rise in serum phosphorus concentration by combined use with sevelamer carbonate (adenine-induced renal failure rat); format: in vivo; details: 14 days
Excerpt: Adenine was forcedly administered orally to each Wistar male rat (7-8 weeks old) to impair renal functions and thereby prepare a hyperphosphatemia model (Katsumata K, Kusano K, Hirata M, Tsunemi K, Nagano N, Burke SK, Fukushima N. Sevelamer hydrochloride prevents ectopic calcification and renal osteodystrophy in chronic renal failure rats. Kidney Int. 2003 Aug; 64 (2): 441-50). Each test compound was mixed at a ratio of 0.1% of mass concentration with feed. The animal was fed with a given amount of the feed for 3 days. A group given feed non-supplemented with a test compound was used as a reference pathological group, and an adenine-unadministered group given feed non-supplemented with a test compound was used as a normal group. 3 days after the start of administration of the test compound, blood was collected from the jugular vein, and serum was collected. Serum phosphorus concentrations were measured by the Fiske-Subbarow method. The rate of suppression of a rise in serum phosphorus concentration was determined according to the following expression: Rate (%) of suppression of a rise in serum phosphorus concentration = (1−[(Serum phosphorus concentration of the test compound−treated pathological group)−(Serum phosphorus concentration of the normal group)]/[(Serum phosphorus concentration of the reference pathological group)−(Serum phosphorus concentration of the normal group)]) × 100 [formula]
Adenine-induced renal failure rats were prepared in the same manner as in Test Example 5. […] Serum phosphorus concentrations were measured by the Fiske-Subbarow method. The rate of suppression of a rise in serum phosphorus concentration was determined according to the following expression: Rate (%) of suppression of a rise in serum phosphorus concentration = (1−[(Serum phosphorus concentration of the compound−treated pathological group)−(Serum phorphorus concentration of the normal group)]/[(Serum phosphorus concentration of the reference pathological group)−(Serum phosphorous concentration of the normal group)]) × 100 [formula] […]

[6] = dosage 0.1% in feed for 14 weeks
[7] = dosage 0.3% in feed for 14 weeks

COCCN(C)CCOc1ccc(CN2C(=O)C(C(=O)Nc3ccc(C(F)(F)F)cc3-c3cc(C(F)(F)F)ncn3)=C(O)C3(CCCC3)N2C)c(F)c1F [Example 14, 7-[[2,3-Difluoro-4-[2-[2-methoxyethyl(methyl)amino]ethoxy]phenyl]methyl]-10-hydroxy-6-methyl-8-oxo-N-[4-(trifluoromethyl)-2-[6-(trifluoromethyl)pyrimidin-4-yl]phenyl]-6,7-diazaspiro[4.5]dec-9-ene-9-carboxamide]
Rate of uptake inhibition (%) (1 µM) [1]: 29% | Rate of inhibition (%) [2]: 17% | Rate of inhibition (%) [3, 6]: 13% | Rate of inhibition (%) [3, 7]: 67% | Rate of inhibition (%) [4, 6]: 100% | Rate of inhibition (%) [4, 7]: 100% | Suppression rate of rise in serum phosphorus concentration (%) ([5]; test compound 0.05% by mass in combination with sevelamer carbonate 0.5% by mass in feed): 104% | Suppression rate of rise in serum phosphorus concentration (%) ([5]; test compound 0.05% by mass in feed alone (sevelamer carbonate 0%)): 61% | Suppression rate of rise in serum phosphorus concentration (%) ([5]; test compound 0.1% by mass in feed alone (sevelamer carbonate 0%)): 79%

Reference: patent publication EP3928779A1 (Chugai Seiyaku Kabushiki Kaisha, priority 2014, dated 2016)
